What follows are molecules tested against Factor D (Homo sapiens, UniProt P00746) (assay: Factor D esterolytic assay (Z-Lys-SBzl thioester substrate, DTNB, 405 nm)). Details: substrate Z-Lys-SBzl 1.29 mM, 100 mM HEPES, 500 mM NaCl, pH 7.5, 10% DMSO, tested a minimum of three times.
Format: biochemical
How it was run: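 Human Factor D hydrolysis of Z-Lys-SBzl (1.29 mM) monitored at 405 nm via DTNB thiol detection for 600 s, 690 nm background subtracted. Buffer 100 mM HEPES, 500 mM NaCl, pH 7.5, 10% DMSO; substrate added immediately or after room-temperature preincubation. IC50 from percent inhibition of rate, at least three tests.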

Factor D, sequence (P00746 26-253): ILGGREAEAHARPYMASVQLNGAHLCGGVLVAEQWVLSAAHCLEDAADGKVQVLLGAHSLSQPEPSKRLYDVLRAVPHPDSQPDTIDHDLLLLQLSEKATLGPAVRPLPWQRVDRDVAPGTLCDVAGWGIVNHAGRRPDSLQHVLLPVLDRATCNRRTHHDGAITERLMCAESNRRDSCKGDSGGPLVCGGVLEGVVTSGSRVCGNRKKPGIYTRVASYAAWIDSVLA

Compared with `Nc1c(CO)cnc2c1ccn2CC(=O)N1[C@@H]2C[C@@H]2C[C@H]1C(=O)Nc1cccc(Br)n1` [Compound 157a, (1R,3S,5R)-2-(2-(4-amino-5-(hydroxymethyl)-1H-pyrrolo[2,3-b]pyridin-1-yl)acetyl)-N-(6-bromopyridin-2-yl)-2-azabicyclo[3.1.0]hexane-3-carboxamide], `Nc1ncnc2c1c1cccnc1n2CC(=O)N1[C@@H]2C[C@@H]2C[C@H]1C(=O)Nc1cccc(Br)n1` [Compound 162g, (1R,3S,5R)-2-(2-(4-amino-9H-pyrido[3′,2′:4,5]pyrrolo[2,3-d]pyrimidin-9-yl)acetyl)-N-(6-bromopyridin-2-yl)-2-azabicyclo[3.1.0]hexane-3-carboxamide] is lower in IC50: 100 to 1000 nM for the first, less than 100 nM for the second.

First: Cc1cc2c(N)ncnc2n1CC(=O)N1[C@@H]2C[C@@H]2C[C@H]1C(=O)Nc1cccc(Br)n1 [Compound 158e, (1R,3S,5R)-2-(2-(4-amino-6-methyl-7H-pyrrolo[2,3-d]pyrimidin-7-yl)acetyl)-N-(6-bromopyridin-2-yl)-2-azabicyclo[3.1.0]hexane-3-carboxamide]
Second: Nc1ncnc2c1c1cc(O)ccc1n2CC(=O)N1[C@@H]2C[C@@H]2C[C@H]1C(=O)Nc1cccc(Br)n1 [Compound 166a, (1R,3S,5R)-2-(2-(4-amino-6-hydroxy-9H-pyrimido[4,5-b]indol-9-yl)acetyl)-N-(6-bromopyridin-2-yl)-2-azabicyclo[3.1.0]hexane-3-carboxamide]
The IC50 of the first is higher: 100 to 1000 nM for the first, less than 100 nM for the second.

`COc1ccc2c(c1)c1c(N)ncnc1n2CC(=O)N1[C@H](C(=O)Nc2cccc(Br)n2)C[C@@]2(C)C[C@@H]12` [Compound 159a, (1R,3S,5R)-2-(2-(4-amino-6-methoxy-9H-pyrimido[4,5-b]indol-9-yl)acetyl)-N-(6-bromopyridin-2-yl)-5-methyl-2-azabicyclo[3.1.0]hexane-3-carboxamide] and `C[C@@]12C[C@@H](C(=O)Nc3cccc(Br)n3)N(C(=O)Cn3c4ccc(Br)cc4c4c(N)ncnc43)[C@@H]1C2` [Compound 160a, (1R,3S,5R)-2-(2-(4-amino-6-bromo-9H-pyrimido[4,5-b]indol-9-yl)acetyl)-N-(6-bromopyridin-2-yl)-5-methyl-2-azabicyclo[3.1.0]hexane-3-carboxamide] cannot be ordered by IC50: less than 100 nM for the first, less than 100 nM for the second.

`C[C@@]12C[C@@H](C(=O)Nc3cccc(Br)n3)N(C(=O)Cn3c4ccc(C(=O)O)cc4c4c(N)ncnc43)[C@@H]1C2` [Compound 161a, 4-amino-9-(2-((1R,3S,5R)-3-((6-bromopyridin-2-yl)carbamoyl)-5-methyl-2-azabicyclo[3.1.0]hexan-2-yl)-2-oxoethyl)-9H-pyrimido[4,5-b]indole-6-carboxylic acid] and `C[C@@]12C[C@@H](C(=O)Nc3cccc(Br)n3)N(C(=O)Cn3c4ccc(O)cc4c4c(N)ncnc43)[C@@H]1C2` [Compound 164a, (1R,3S,5R)-2-(2-(4-amino-6-hydroxy-9H-pyrimido[4,5-b]indol-9-yl)acetyl)-N-(6-bromopyridin-2-yl)-5-methyl-2-azabicyclo[3.1.0]hexane-3-carboxamide] cannot be ordered by IC50: less than 100 nM for the first, less than 100 nM for the second.

`Nc1ncnc2c1c1cnccc1n2CC(=O)N1[C@@H]2C[C@@H]2C[C@H]1C(=O)Nc1cccc(Br)n1` [Compound 163g, (1R,3S,5R)-2-(2-(4-amino-9H-pyrido[3′,4′:4,5]pyrrolo[2,3-d]pyrimidin-9-yl)acetyl)-N-(6-bromopyridin-2-yl)-2-azabicyclo[3.1.0]hexane-3-carboxamide] and `Nc1ncnc2c1c1ccc(O)cc1n2CC(=O)N1[C@@H]2C[C@@H]2C[C@H]1C(=O)Nc1cccc(Br)n1` [Compound 167a, (1R,3S,5R)-2-(2-(4-amino-7-hydroxy-9H-pyrimido[4,5-b]indol-9-yl)acetyl)-N-(6-bromopyridin-2-yl)-2-azabicyclo[3.1.0]hexane-3-carboxamide] cannot be ordered by IC50: less than 100 nM for the first, less than 100 nM for the second.

`Nc1ncnc2c1c1cc(CCC(=O)O)ccc1n2CC(=O)N1[C@@H]2C[C@@H]2C[C@H]1C(=O)Nc1cccc(Br)n1` [Compound 165a, 3-(4-amino-9-(2-((1R,3S,5R)-3-((6-bromopyridin-2-yl)carbamoyl)-2-azabicyclo[3.1.0]hexan-2-yl)-2-oxoethyl)-9H-pyrimido[4,5-b]indol-6-yl)propanoic acid] and `CC(=O)Nc1ccc2c(c1)c1c(N)ncnc1n2CC(=O)N1[C@@H]2C[C@@H]2C[C@H]1C(=O)Nc1cccc(Br)n1` [Compound 168g, (1R,3S,5R)-2-(2-(6-acetamido-4-amino-9H-pyrimido[4,5-b]indol-9-yl)acetyl)-N-(6-bromopyridin-2-yl)-2-azabicyclo[3.1.0]hexane-3-carboxamide] cannot be ordered by IC50: less than 100 nM for the first, less than 100 nM for the second.

`Nc1ncnc2c1c1cc(C(=O)NCC3CC3)ccc1n2CC(=O)N1[C@@H]2C[C@@H]2C[C@H]1C(=O)Nc1cccc(Br)n1` [Compound 169f, 4-amino-9-(2-((1R,3S,5R)-3-((6-bromopyridin-2-yl)carbamoyl)-2-azabicyclo[3.1.0]hexan-2-yl)-2-oxoethyl)-N-(cyclopropylmethyl)-9H-pyrimido[4,5-b]indole-6-carboxamide] and `CC(O)c1ccc2c(c1)c1c(N)ncnc1n2CC(=O)N1[C@@H]2C[C@@H]2C[C@H]1C(=O)Nc1cccc(Br)n1` (stereo partly drawn) [Compound 170c, (1R,3S,5R)-2-(2-(4-amino-6-(1-hydroxyethyl)-9H-pyrimido[4,5-b]indol-9-yl)acetyl)-N-(6-bromopyridin-2-yl)-2-azabicyclo[3.1.0]hexane-3-carboxamide] cannot be ordered by IC50: less than 100 nM for the first, less than 100 nM for the second.

First: Nc1ncnc2c1c1cc(C(F)(F)F)ccc1n2CC(=O)N1CCS[C@H]1C(=O)Nc1cccc(Br)n1 [Compound 171b, (S)-3-(2-(4-amino-6-(trifluoromethyl)-9H-pyrimido[4,5-b]indol-9-yl)acetyl)-N-(6-bromopyridin-2-yl)thiazolidine-2-carboxamide]
Second: Nc1ncnc2c1c1cc(C(F)(F)F)ccc1n2CC(=O)N1C[C@@H](N)C[C@H]1C(=O)Nc1cccc(Br)n1 [Compound 180e, (2S,4S)-4-amino-1-(2-(4-amino-6-(trifluoromethyl)-9H-pyrimido[4,5-b]indol-9-yl)acetyl)-N-(6-bromopyridin-2-yl)pyrrolidine-2-carboxamide]
The IC50 of the first is lower: less than 100 nM for the first, 100 to 1000 nM for the second.

First: COc1cccc2c1c1c(N)ncnc1n2CC(=O)N1[C@H](C(=O)Nc2cccc(Br)n2)C[C@@]2(C)C[C@@H]12 [Compound 172a, (1R,3S,5R)-2-(2-(4-amino-5-methoxy-9H-pyrimido[4,5-b]indol-9-yl)acetyl)-N-(6-bromopyridin-2-yl)-5-methyl-2-azabicyclo[3.1.0]hexane-3-carboxamide]
Second: Cc1cccc2c1c1c(N)ncnc1n2CC(=O)N1[C@H](C(=O)Nc2cccc(Br)n2)C[C@@]2(C)C[C@@H]12 [Compound 176a, (1R,3S,5R)-2-(2-(4-amino-5-methyl-9H-pyrimido[4,5-b]indol-9-yl)acetyl)-N-(6-bromopyridin-2-yl)-5-methyl-2-azabicyclo[3.1.0]hexane-3-carboxamide]
The IC50 of the first is lower: less than 100 nM for the first, 100 to 1000 nM for the second.

Going from `COc1cccc2c3c(N)ncnc3n(CC(=O)N3[C@H](C(=O)Nc4cccc(Br)n4)C[C@@]4(C)C[C@@H]34)c12` [Compound 173a, (1R,3S,5R)-2-(2-(4-amino-8-methoxy-9H-pyrimido[4,5-b]indol-9-yl)acetyl)-N-(6-bromopyridin-2-yl)-5-methyl-2-azabicyclo[3.1.0]hexane-3-carboxamide] to `C[C@@]12C[C@@H](C(=O)Nc3cccc(Br)n3)N(C(=O)Cn3c4ncnc(N)c4c4cccc(C(F)(F)F)c43)[C@@H]1C2` [Compound 175a, (1R,3S,5R)-2-(2-(4-amino-8-(trifluoromethyl)-9H-pyrimido[4,5-b]indol-9-yl)acetyl)-N-(6-bromopyridin-2-yl)-5-methyl-2-azabicyclo[3.1.0]hexane-3-carboxamide], the IC50 rises from less than 100 nM to greater than 1000 nM.

First: Nc1ncnc2c1c1cccc(C(F)(F)F)c1n2CC(=O)N1[C@@H]2C[C@@H]2C[C@H]1C(=O)Nc1cccc(Br)n1 [Compound 174g, (1R,3S,5R)-2-(2-(4-amino-8-(trifluoromethyl)-9H-pyrimido[4,5-b]indol-9-yl)acetyl)-N-(6-bromopyridin-2-yl)-2-azabicyclo[3.1.0]hexane-3-carboxamide]
Second: N#C[C@H]1C[C@@H](C(=O)Nc2cccc(Br)n2)N(C(=O)Cn2c3ccc(C(F)(F)F)cc3c3c(N)ncnc32)C1 [Compound 177d, (2S,4S)-1-(2-(4-amino-6-(trifluoromethyl)-9H-pyrimido[4,5-b]indol-9-yl)acetyl)-N-(6-bromopyridin-2-yl)-4-cyanopyrrolidine-2-carboxamide]
The IC50 of the first is higher: greater than 1000 nM for the first, 100 to 1000 nM for the second.

Compared with `N#C[C@@H]1C[C@@H](C(=O)Nc2cccc(Br)n2)N(C(=O)Cn2c3ccc(C(F)(F)F)cc3c3c(N)ncnc32)C1` [Compound 178d, (2S,4R)-1-(2-(4-amino-6-(trifluoromethyl)-9H-pyrimido[4,5-b]indol-9-yl)acetyl)-N-(6-bromopyridin-2-yl)-4-cyanopyrrolidine-2-carboxamide], `Nc1ncnc2c1c1cc(C(F)(F)F)ccc1n2CC(=O)N1c2ccccc2C[C@H]1C(=O)Nc1cccc(Br)n1` [Compound 179d, (S)-1-(2-(4-amino-6-(trifluoromethyl)-9H-pyrimido[4,5-b]indol-9-yl)acetyl)-N-(6-bromopyridin-2-yl)indoline-2-carboxamide] is higher in IC50: 100 to 1000 nM for the first, greater than 1000 nM for the second.

`C[C@@]12C[C@@H](C(=O)Nc3cccc(Br)n3)N(C(=O)Cn3c4ccncc4c4c(N)ncnc43)[C@@H]1C2` [Compound 181a, (1R,3S,5R)-2-(2-(4-amino-9H-pyrido[3′,4′:4,5]pyrrolo[2,3-d]pyrimidin-9-yl)acetyl)-N-(6-bromopyridin-2-yl)-5-methyl-2-azabicyclo[3.1.0]hexane-3-carboxamide] and `C[C@@]12C[C@@H](C(=O)Nc3cccc(Br)n3)N(C(=O)Cn3c4cnccc4c4c(N)ncnc43)[C@@H]1C2` [Compound 182a, (1R,3S,5R)-2-(2-(4-amino-9H-pyrido[4′,3′:4,5]pyrrolo[2,3-d]pyrimidin-9-yl)acetyl)-N-(6-bromopyridin-2-yl)-5-methyl-2-azabicyclo[3.1.0]hexane-3-carboxamide] cannot be ordered by IC50: less than 100 nM for the first, less than 100 nM for the second.

Reference: patent US12679843B2, “Pyrrolopyrimidine amines as complement inhibitors” (BioCryst Pharmaceuticals, Inc., priority 2020, dated 2026)
